The values below come from PMC5080452 (Bioorganic & Medicinal Chemistry, 2016).

Series [1] is described as follows: in vitro. To be noted: pig, PAMPA. On the technique in general: PAMPA measures passive passage across an artificial lipid membrane.
Series [2] has as its target T1, Electrophorus electricus (Ee) AChE (Electrophorus electricus, UniProt O42275).
T1 construct: purchased Sigma-Aldrich
The experiment in a line: Acetylcholinesterase inhibitory activity (Ellman method). The series is classed as biochemical. The settings on record: mean ± SEM, read-out: EeAChE IC50. (DTNB colorimetry detects thiols as they appear.)
Method: The inhibitory activity against Electrophorus electricus (Ee) AChE (Sigma–Aldrich) was evaluated spectrophotometrically by the method of Ellman et al.[56] […] Inhibition curves were performed in duplicates using at least 10 increasing concentrations of inhibitors and preincubated for 20 min at 37 °C before adding the substrate. One duplicate sample without inhibitor was always present to yield 100% of AChE activity.
Results are expressed as mean ± SEM of at least 4 experiments performed in duplicate.

For series [3] the following is noted: commercial drugs for PAMPA-BBB assay validation; cited from earlier work.

T1 sequence (O42275 24-633): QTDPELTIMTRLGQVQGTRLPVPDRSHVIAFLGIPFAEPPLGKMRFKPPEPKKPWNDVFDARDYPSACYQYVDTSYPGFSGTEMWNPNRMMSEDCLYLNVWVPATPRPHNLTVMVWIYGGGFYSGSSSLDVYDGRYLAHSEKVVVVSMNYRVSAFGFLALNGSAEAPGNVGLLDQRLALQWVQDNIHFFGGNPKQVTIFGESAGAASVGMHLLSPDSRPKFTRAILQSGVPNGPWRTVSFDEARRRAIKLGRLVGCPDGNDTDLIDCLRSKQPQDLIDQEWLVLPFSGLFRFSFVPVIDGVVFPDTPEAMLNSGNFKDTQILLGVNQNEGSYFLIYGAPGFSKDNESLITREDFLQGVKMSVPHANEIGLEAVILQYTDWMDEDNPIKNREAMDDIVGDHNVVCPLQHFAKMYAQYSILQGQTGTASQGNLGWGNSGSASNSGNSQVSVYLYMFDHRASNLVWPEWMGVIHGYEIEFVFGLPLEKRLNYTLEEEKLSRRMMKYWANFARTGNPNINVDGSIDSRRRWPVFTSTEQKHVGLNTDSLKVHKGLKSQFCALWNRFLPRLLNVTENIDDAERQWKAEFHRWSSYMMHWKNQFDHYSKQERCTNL

What is called Papp is the rate of passage across a membrane or cell layer, normalised by area and donor concentration. High values mean fast passage, low ones slow passage. Broadly, the IC50 is the concentration that inhibits the measured activity by half. In turn, `CC1=CC2Cc3nc4cc(Cl)ccc4c(NCCCN4CCCCC4)c3C(C1)C2` (racemic) [compound 7, 3-Chloro-6,7,10,11-tetrahydro-9-methyl-12-[(3-piperidinopropyl)amino]-7,11-methanocycloocta[b]quinoline] returned a Papp in series [1] of 59 ± 4 nm/s. Further, in series [2], the IC50 stood at 0.0484 ± 0.0027 µM.
In the case of `CC1=CC2Cc3nc4cc(Cl)ccc4c(NCCCN4CCOCC4)c3C(C1)C2` (racemic) [compound 8, (±)-3-Chloro-6,7,10,11-tetrahydro-9-methyl-12-[(3-morpholinopropyl)amino]-7,11-methanocycloocta[b]quinoline], the apparent permeability (Papp) in series [1] amounted to 150 ± 10 nm/s. In addition, the IC50 in series [2] was found to be 0.0133 ± 0.0008 µM.
Consider `CC1=CC2Cc3nc4cc(Cl)ccc4c(NCCCCC#N)c3C(C1)C2` (centres unmarked) [4a], for which the IC50 in series [2] is 0.0269 ± 0.0011 µM.
The molecule `CC1=CC2Cc3nc4cc(Cl)ccc4c(NCCCCCC#N)c3C(C1)C2` (centres unmarked) [4b] returned a Papp in series [1] of 124 ± 6 nm/s. Also, the IC50 in series [2] came out at 0.0311 ± 0.0031 µM.
`CC1=CC2Cc3nc4cc(Cl)ccc4c(NCCCCCCCCCC#N)c3C(C1)C2` (centres unmarked) [4f] showed a Papp in series [1] of 113 ± 12 nm/s. The IC50 in series [2] was 0.00967 ± 0.00089 µM.
As to `CC1=CC2Cc3nc4cc(Cl)ccc4c(NCc4ccc(C#N)cc4)c3C(C1)C2` (centres unmarked) [4h], the Papp in series [1] amounted to 193 ± 12 nm/s. In series [2], the IC50 turned out to be 0.158 ± 0.021 µM.
For `CC1=CC2Cc3nc4cc(Cl)ccc4c(NCCCCCCCN)c3C(C1)C2` (centres unmarked) [5c], the Papp in series [1] amounted to 76 ± 7 nm/s. Besides, the IC50 in series [2] is 0.036 ± 0.0035 µM.
In series [1], `CC1=CC2Cc3nc4cc(Cl)ccc4c(NCCCCCCCCN)c3C(C1)C2` (centres unmarked) [5d] showed a Papp of 98 ± 6 nm/s. The IC50 in series [2] worked out at 0.0173 ± 0.0012 µM.
With `CC1=CC2Cc3nc4cc(Cl)ccc4c(NCCCCCCCCCN)c3C(C1)C2` (centres unmarked) [5e], the Papp in series [1] came to 71 ± 7 nm/s. Moreover, the IC50 in series [2] came out at 0.0164 ± 0.0018 µM.
In turn, `CC1=CC2Cc3nc4cc(Cl)ccc4c(NCCCCCCCCCCCN)c3C(C1)C2` (centres unmarked) [5g] had a Papp in series [1] of 40 ± 2 nm/s. Moreover, in series [2], the IC50 was 0.0353 ± 0.0039 µM.
Regarding `CC1=C[C@@H]2Cc3nc4cc(Cl)ccc4c(NCc4ccc(CN)cc4)c3[C@H](C1)C2` [5h], the Papp in series [1] was found to be 117 ± 11 nm/s.
Molecule `CC1=CC2Cc3nc4cc(Cl)ccc4c(NCCCCCCNC(=N)N)c3C(C1)C2` (centres unmarked) [6b, 1-{6-[(3-Chloro-6,7,10,11-tetrahydro-9-methyl-7,11-methanocycloocta[b]quinolin-12-yl)amino]hexyl}guanidine] registered a Papp in series [1] of 29 ± 4 nm/s. Further, the IC50 in series [2] was 0.0118 ± 0.0013 µM.
The like results for `CC1=CC2Cc3nc4cc(Cl)ccc4c(NCCCCCCCCCNC(=N)N)c3C(C1)C2` (centres unmarked) [6e, 1-{9-[(3-Chloro-6,7,10,11-tetrahydro-9-methyl-7,11-methanocycloocta[b]quinolin-12-yl)amino]nonyl}guanidine] were, in that order, 54 ± 3 nm/s and 0.0106 ± 0.0008 µM.
In series [1], `N#CCCCCCCNc1c2c(nc3ccccc13)CCCC2` [11c, 7-[(1,2,3,4-Tetrahydroacridin-9-yl)amino]heptanenitrile] had a Papp of 112 ± 2 nm/s. Besides, the IC50 in series [2] was 0.0539 ± 0.003 µM.
Turning to `N#CCCCCCCCCNc1c2c(nc3ccccc13)CCCC2` [11e, 9-[(1,2,3,4-Tetrahydroacridin-9-yl)amino]nonanenitrile], the Papp in series [1] is 76 ± 3.5 nm/s. The IC50 in series [2] came out at 0.0449 ± 0.0016 µM.
Consider `N#CCCCCCCNc1c2c(nc3cc(Cl)ccc13)CCCC2` [12c, 7-[(6-Chloro-1,2,3,4-tetrahydroacridin-9-yl)amino]heptanenitrile], for which, in series [1], the Papp is 167 ± 9 nm/s.
`N#CCCCCCCCNc1c2c(nc3cc(Cl)ccc13)CCCC2` [12d, 8-[(6-Chloro-1,2,3,4-tetrahydroacridin-9-yl)amino]octanenitrile] had a Papp in series [1] of 147 ± 8 nm/s. The IC50 in series [2] stood at 0.046 ± 0.006 µM.
The like results for `N#CCCCCCCCCNc1c2c(nc3cc(Cl)ccc13)CCCC2` [12e, 9-[(6-Chloro-1,2,3,4-tetrahydroacridin-9-yl)amino]nonanenitrile] were, in that order, 54 ± 4 nm/s and 0.0243 ± 0.0045 µM.
On to `NCCCCCCCNc1c2c(nc3ccccc13)CCCC2` [13c], for which the Papp in series [1] was found to be 74 ± 1 nm/s. The IC50 in series [2] was found to be 0.0239 ± 0.0026 µM.
`NCCCCCCCCCNc1c2c(nc3ccccc13)CCCC2` [13e] registered a Papp in series [1] of 69 ± 5 nm/s. In series [2], the IC50 turned out to be 0.0156 ± 0.0015 µM.
In series [1], `NCCCCCCCCCNc1c2c(nc3cc(Cl)ccc13)CCCC2` [14e] displayed a Papp of 58 ± 3 nm/s. Further, the IC50 in series [2] turned out to be 0.0145 ± 0.0016 µM.
The like results for `N=C(N)NCCCCCCCNc1c2c(nc3ccccc13)CCCC2` [15c, 1-{7-[(1,2,3,4-Tetrahydroacridin-9-yl)amino]heptyl}guanidine] were, in that order, 59 ± 3 nm/s and 0.0239 ± 0.0026 µM.
`N=C(N)NCCCCCCCCCNc1c2c(nc3ccccc13)CCCC2` [15e, 1-{9-[(1,2,3,4-Tetrahydroacridin-9-yl)amino]nonyl}guanidine]: in series [1], the Papp is 65 ± 3 nm/s. The IC50 in series [2] was 0.0305 ± 0.0019 µM.
For the molecule `N=C(N)NCCCCCCCCCNc1c2c(nc3cc(Cl)ccc13)CCCC2` [16e, 1-{9-[(6-Chloro-1,2,3,4-tetrahydroacridin-9-yl)amino]nonyl}guanidine], the Papp in series [1] amounted to 67 ± 4 nm/s. Also, the IC50 in series [2] was 0.0164 ± 0.0015 µM.
As for `CN(C)CCCN1c2ccccc2Sc2ccccc21` [Promazine], the “Pe, literature value” in series [3] is given as 8.8 10^−6 cm s^−1.
Consider `CC1=CC2Cc3nc4cc(Cl)ccc4c(N)c3C(C1)C2` (centres unmarked) [compound 1, huprine Y, reference compound], for which the IC50 in series [2] was 0.0003 ± 1e-05 µM.
